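Five concentrations, 48 hours, 96-well plates. The concentration for 50% growth inhibition is given as GI50.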 The source made the active and inactive calls. No stated cut-off is given here; in the data, active = GI50 up to about 1.1 µM and inactive = higher.
Tests used:
Test in all cases: inhibition of tumour cell growth, NCI panel, 48 h
TK-10 = test system: TK-10
UO-31 = test system: UO-31
786-0 = test system: 786-0
SK-MEL-2 = test system: SK-MEL-2
SF-539 = test system: SF-539
IGROV-1 = test system: IGROV-1
HT-29 = test system: HT-29
U-251 = test system: U-251
OVCAR-5 = test system: OVCAR-5
HCT-116 = test system: HCT-116
SF-268 = test system: SF-268
SW-620 = test system: SW-620
RPMI-8226 = test system: RPMI-8226
EKVX = test system: EKVX
KM12 = test system: KM12
HCC 2998 = test system: HCC 2998
MCF7 = test system: MCF7
DU-145 = test system: DU-145
PC-3 = test system: PC-3

| SMILES | GI50 (TK-10) | GI50 (UO-31) | GI50 (786-0) | GI50 (SK-MEL-2) | GI50 (SF-539) | GI50 (IGROV-1) | GI50 (HT-29) | GI50 (U-251) | GI50 (OVCAR-5) | GI50 (HCT-116) | GI50 (SF-268) | GI50 (SW-620) | GI50 (RPMI-8226) | GI50 (EKVX) | GI50 (KM12) | GI50 (HCC 2998) | GI50 (MCF7) | GI50 (DU-145) | GI50 (PC-3) |
| --- | --- | --- | --- | --- | --- | --- | --- | --- | --- | --- | --- | --- | --- | --- | --- | --- | --- | --- | --- |
| O=C(/C=C/c1ccc(Cl)c(Cl)c1)c1ccc2ccccc2c1 | > 100 µM (inactive) | > 100 µM (inactive) | > 100 µM (inactive) | > 100 µM (inactive) | > 100 µM (inactive) | > 100 µM (inactive) | > 100 µM (inactive) | > 100 µM (inactive) | > 100 µM (inactive) | > 100 µM (inactive) | > 100 µM (inactive) | > 100 µM (inactive) | > 100 µM (inactive) | > 100 µM (inactive) | > 100 µM (inactive) | > 100 µM (inactive) | – | – | – |
| O=c1[nH]c2cc([N+](=O)[O-])c(Nc3c4ccccc4nc4ccccc34)c([N+](=O)[O-])c2[nH]1 | 1.92 µM (inactive) | 2.09 µM (inactive) | 2.39 µM (inactive) | 2.72 µM (inactive) | 3.28 µM (inactive) | 0.238 µM (active) | 1.98 µM (inactive) | 3.58 µM (inactive) | 2.4 µM (inactive) | 0.82 µM (active) | 3.15 µM (inactive) | 2.31 µM (inactive) | 2.55 µM (inactive) | 2.47 µM (inactive) | 2.26 µM (inactive) | 1.73 µM (inactive) | 2.59 µM (inactive) | 2.29 µM (inactive) | 3.32 µM (inactive) |
| S=c1nc(N/N=C/c2cccs2)c2cn[nH]c2[nH]1 | 17.9 µM (inactive) | > 100 µM (inactive) | 27.9 µM (inactive) | 58.2 µM (inactive) | 50.2 µM (inactive) | 20.2 µM (inactive) | 29.5 µM (inactive) | 25.1 µM (inactive) | 17.2 µM (inactive) | 16.2 µM (inactive) | 38 µM (inactive) | 37.1 µM (inactive) | 5.04 µM (inactive) | 31.9 µM (inactive) | 6.43 µM (inactive) | 10.1 µM (inactive) | 4.23 µM (inactive) | 34.8 µM (inactive) | 15.1 µM (inactive) |
| O=C(CC(=O)n1nc(-c2ccccc2)c(/N=N/c2ccc([N+](=O)[O-])cc2)c1-c1ccccc1)Nc1ccc(Cl)cc1 | 22.6 µM (inactive) | 11.9 µM (inactive) | 34.8 µM (inactive) | 34.8 µM (inactive) | 21.5 µM (inactive) | 36.4 µM (inactive) | 12.5 µM (inactive) | 18.9 µM (inactive) | 26.5 µM (inactive) | 12.9 µM (inactive) | 13.5 µM (inactive) | 21.6 µM (inactive) | 30.2 µM (inactive) | 26.7 µM (inactive) | 12 µM (inactive) | 20.8 µM (inactive) | – | – | – |
| CC(C)C(=O)/C=C/c1ccc(Cl)c(Cl)c1 | 14.2 µM (inactive) | 14.2 µM (inactive) | 14.5 µM (inactive) | 17.5 µM (inactive) | 13.2 µM (inactive) | 20 µM (inactive) | 19.7 µM (inactive) | 17 µM (inactive) | 21.7 µM (inactive) | 3.69 µM (inactive) | 19.2 µM (inactive) | 15.6 µM (inactive) | 13.8 µM (inactive) | 23.4 µM (inactive) | 14.8 µM (inactive) | 18.8 µM (inactive) | – | – | – |
| O=C1[C@@H]2C3c4ccccc4C([C@@H]2C(=O)N1c1ccccc1)S3(=O)=O | > 100 µM (inactive) | > 100 µM (inactive) | 55.8 µM (inactive) | > 100 µM (inactive) | > 100 µM (inactive) | > 100 µM (inactive) | > 100 µM (inactive) | 47.2 µM (inactive) | > 100 µM (inactive) | > 100 µM (inactive) | 38.9 µM (inactive) | 51.4 µM (inactive) | > 100 µM (inactive) | > 100 µM (inactive) | > 100 µM (inactive) | > 100 µM (inactive) | – | – | – |
| COc1cccc2c1C(=O)C=CC2=O | 14.2 µM (inactive) | 15.4 µM (inactive) | 11.5 µM (inactive) | 10.1 µM (inactive) | 16.1 µM (inactive) | 12.2 µM (inactive) | 11 µM (inactive) | 6.81 µM (inactive) | 18.9 µM (inactive) | 3.44 µM (inactive) | 6.73 µM (inactive) | 6.18 µM (inactive) | 2.1 µM (inactive) | 18.5 µM (inactive) | 9.82 µM (inactive) | 15.3 µM (inactive) | 1.93 µM (inactive) | 19.2 µM (inactive) | – |
| Cc1cccc(/N=C/C=C(\Cl)c2ccc3ccccc3c2)c1 | 19.8 µM (inactive) | 16.2 µM (inactive) | 13.9 µM (inactive) | 22.9 µM (inactive) | 17.8 µM (inactive) | 20.6 µM (inactive) | 21.2 µM (inactive) | 14.8 µM (inactive) | 27.8 µM (inactive) | 2.98 µM (inactive) | 22.9 µM (inactive) | 9.46 µM (inactive) | 7.91 µM (inactive) | 39.5 µM (inactive) | 17.7 µM (inactive) | – | 16.4 µM (inactive) | 17.7 µM (inactive) | 21 µM (inactive) |
| CCOC(=O)c1ccc(/N=C/c2ccc(N(CCC#N)S(=O)(=O)c3ccccc3)cc2C)cc1 | 49.3 µM (inactive) | 28.3 µM (inactive) | > 100 µM (inactive) | 33.5 µM (inactive) | 41.9 µM (inactive) | > 100 µM (inactive) | 37.2 µM (inactive) | 97.1 µM (inactive) | 31.8 µM (inactive) | 36.9 µM (inactive) | 26.1 µM (inactive) | 76.6 µM (inactive) | 36.2 µM (inactive) | 52.8 µM (inactive) | 18.7 µM (inactive) | 28.7 µM (inactive) | – | – | – |
| O=c1oc2ccccc2[n+]([O-])c1-c1ccccc1 | > 100 µM (inactive) | > 100 µM (inactive) | > 100 µM (inactive) | > 100 µM (inactive) | > 100 µM (inactive) | > 100 µM (inactive) | > 100 µM (inactive) | > 100 µM (inactive) | > 100 µM (inactive) | > 100 µM (inactive) | > 100 µM (inactive) | > 100 µM (inactive) | > 100 µM (inactive) | > 100 µM (inactive) | > 100 µM (inactive) | > 100 µM (inactive) | – | – | – |
| CN(CCN1C(=O)c2cc([N+](=O)[O-])cc3cc([N+](=O)[O-])cc(c23)C1=O)CCN1C(=O)c2cc([N+](=O)[O-])cc3cc([N+](=O)[O-])cc(c23)C1=O | 8.73 µM (inactive) | 4.8 µM (inactive) | 0.455 µM (active) | 0.764 µM (active) | 0.399 µM (active) | 0.347 µM (active) | 0.272 µM (active) | 0.375 µM (active) | 1.69 µM (inactive) | 0.153 µM (active) | 0.458 µM (active) | 0.0741 µM (active) | 0.342 µM (active) | 4.26 µM (inactive) | 0.681 µM (active) | 0.491 µM (active) | – | – | – |
| C=C1C(=O)OC2C1C(OC(=O)/C(=C/C)COC(C)=O)CC1(CO1)C1C(OC(=O)/C(=C/C)CO)C=C(C)C21 (centres undefined) | 2.3 µM (inactive) | 3.14 µM (inactive) | 1.66 µM (inactive) | 1.87 µM (inactive) | 5.81 µM (inactive) | 1.89 µM (inactive) | 1.64 µM (inactive) | 15.1 µM (inactive) | 12.2 µM (inactive) | 1.63 µM (inactive) | 2.75 µM (inactive) | 0.736 µM (active) | 0.655 µM (active) | 2 µM (inactive) | 3.94 µM (inactive) | 1.92 µM (inactive) | – | – | – |
| Cc1ccc(S(=O)(=O)c2ccc(C)cc2[N+](=O)[O-])cc1 | > 100 µM (inactive) | > 100 µM (inactive) | > 100 µM (inactive) | > 100 µM (inactive) | > 100 µM (inactive) | > 100 µM (inactive) | > 100 µM (inactive) | > 100 µM (inactive) | > 100 µM (inactive) | 71.4 µM (inactive) | > 100 µM (inactive) | > 100 µM (inactive) | > 100 µM (inactive) | > 100 µM (inactive) | > 100 µM (inactive) | > 100 µM (inactive) | – | – | – |
| COc1ccc(O)c(/C=N\Nc2ccccc2)c1 | – | 4.14 µM (inactive) | 32.3 µM (inactive) | 4.8 µM (inactive) | 12.2 µM (inactive) | – | 15.6 µM (inactive) | 26.2 µM (inactive) | 19.5 µM (inactive) | 22.6 µM (inactive) | 13.1 µM (inactive) | 5.41 µM (inactive) | 0.021 µM (active) | 39.7 µM (inactive) | – | < 0.01 µM (active) | 14.8 µM (inactive) | 25.5 µM (inactive) | 45.2 µM (inactive) |
| COC(=O)C1C=CCON2CCc3c(n(S(=O)(=O)c4ccccc4)c4ccccc34)C12 (centres undefined) | > 78.3 µM (inactive) | 42.9 µM (inactive) | > 87.1 µM (inactive) | > 100 µM (inactive) | > 12.8 µM (inactive) | > 55.3 µM (inactive) | 43.4 µM (inactive) | 25.2 µM (inactive) | > 100 µM (inactive) | 39.3 µM (inactive) | > 100 µM (inactive) | 14.8 µM (inactive) | 14.5 µM (inactive) | 41.5 µM (inactive) | 35.2 µM (inactive) | 51.5 µM (inactive) | – | – | – |
| O=C1/C(=C/c2cccc(F)c2)CCCc2ccccc21 | 15.7 µM (inactive) | 16.3 µM (inactive) | 17.2 µM (inactive) | 16.2 µM (inactive) | 17.4 µM (inactive) | 12.2 µM (inactive) | 13.2 µM (inactive) | 16.2 µM (inactive) | 15.1 µM (inactive) | 15.6 µM (inactive) | 12.9 µM (inactive) | 16.9 µM (inactive) | 14.9 µM (inactive) | 15 µM (inactive) | 12.1 µM (inactive) | 14.7 µM (inactive) | 14.6 µM (inactive) | 16.9 µM (inactive) | 15.7 µM (inactive) |

From ChEMBL document CHEMBL1201862, “PubChem BioAssay data set” (2004)
